{
  "source": "patent EP1330254B1",
  "about": "“TREATMENT OF CANCERS BY APLIDINE IN CONJUNCTION WITH CARNITINE OR ACETYLCARNITINE” (priority 2000, dated 2002)",
  "key": {"[1]": {"test_system": "panel of 25 human tumor cell lines", "experiment": "tumor protection by L-carnitine, cell line panel", "type": "cell-based", "conditions": "initial results", "protocol": "The possibility of tumor protection by L-carnitine was evaluated using a panel of 25 human tumor cell lines."}, "[2]": {"experiment": "L-carnitine as myoprotector in aplidine patients (study APL-A-003-98)", "type": "in vivo, human", "protocol": "More generally, the invention involves the use of a muscle protector in conjunction with aplidine therapy. We have found in particular that carnitine is beneficial in treating myotoxicity that is associated with chemotherapy with the experimental drug aplidine. […] When L-carnitine 4.5 g/day was added to the therapy (at doses of 1.5 g three times daily), or […] (at doses of […] 3 times daily) patients were able to tolerate doses of aplidine up to 6000 mcg/m 2 every second week. […] Therefore, muscle protectors such as L-carnitine is a useful myoprotector for patients being treated with aplidine or an aplidine analogue.\nL-carnitine at a dose of 1.5 grams 3 times per day or 0.033 g/kg 3 times per day was started in all patients of study APL-A-003-98.\nThe dose may be decreased to manage the above effects."}, "[3]": {"conditions": "L-carnitine at the doses used in this study"}},
  "data": [
    {"smiles": "C[N+](C)(C)C[C@H](O)CC(=O)[O-]", "note": "[L-carnitine]", "values": [
      {"measurement": "effect on the antitumor activity of aplidine", "setting": "[1]", "value": "lack of effect"},
      {"measurement": "outcome in patients with prior skeletal muscle toxicity", "setting": "[2]; 4 patients continuing aplidine, L-carnitine 1.5 grams 3 times per day or 0.033 g/kg 3 times per day", "value": "no skeletal muscle symptoms and just transient grade 1 CK increases"},
      {"measurement": "outcome in patients on L-carnitine prophylaxis from the beginning", "setting": "[2]; 11 patients", "value": "just an asymptomatic G1 increase in CK"},
      {"measurement": "only toxicity reported", "setting": "[2]; [3]", "value": "grade 1 abdominal discornfort and diarrhea"},
      {"measurement": "tolerability", "setting": "[2]; [3]", "value": "well tolerated"},
      {"measurement": "increase of aplidine MTD", "setting": "[2]; L-carnitine prophylaxis, 24 h every other week infusion study", "value": 33, "unit": "%"},
      {"measurement": "outcome after L-carnitine at reduced doses", "setting": "[2]; two patients, grade 3 with weakness and grade 1 with asthenia", "value": "symptomatic increases in CK"}
    ]}
  ]
}
